Measurements: patent US5457099A, “Carbostyril derivatives and antiallergic agent” (Sawai Pharmaceutical Co., Ltd., priority 1992, dated 1995)
Read-outs that look alike come from different tables or passages of the source.

Legend:
[1] = tested on: blood TXA2; experiment: Blood thromboxane (TX)A2 in sensitized rats; assay type: in vivo, Male Wistar rats; details: 1 mg/kg orally
Procedure: (§1) Male Wistar rats of 7 weeks old and weighing about 280 g were passively sensitized with rat anti-ovalbumin anti-serum prepared according to the method of Tada and Okumura. Similarly, Hartley guinea pigs of 8 weeks old and weighing about 500 g were passively sensitized with guinea pig anti-ovalbumin antiserum prepared by immunizing with a mixed emulsion of ovalbumin and complete Freund's adjuvant (4.5:5.5) .
(§2) After 24 hours, trachea was incised under urethane ansthetiziation and cannulated with a respirator. Ovalbumin was intravenously administered to elicit the reaction while observing airway resistance according to a modified Konzett and Roessler method. Drugs were orally administered before 1 hour of elicitation of reaction. Blood samples were drawn from artery of rats and guinea pigs before the elicitaiton and after 8 minutes and 15 minutes, respectively, of the elicitation. The obtained blood samples were immediately mixed with 10 mM EDTA disodium and 0.4 mM indomethacin and centrifuged to separate blood plasma. TXB2, a metabolite of TXA2, in the blood plasma was partially purified by C18 column and determined by Enzyme Immunoassay Kit.

[2] = tested on: experimental asthma in rats; experiment: Inhibition of experimental asthma in rats; assay type: in vivo, Wistar rats; details: Rattus norvegicus, po; for inhibition in vivo at 10 mg/kg: read-out: Inhibition of Experimental Asthma in rat
Procedure: (§3) Antiserum was prepared according to the method described in J. Immunol., 106, 1002 (1971). The titer (or highest effective dilution which gave a mean 48 hours PCA response of 5 mm in diameter in a rat) of the antiserum used was 1:200.
Wistar rats were passively sensitized by injection into caudal vein of 2.0ml/animal antiserum. After 24 hours, anaphylactic airway contraction caused by administration of antigen was measured by a modified Konzett and Roessler method. Briefly, the animal was fixed at dorsal position under urethane (1.5 g/kg, i.p.) anesthetization and connected with a respirator (Harvard Model 683, respiratory volume: 3-5 ml/respiration; respiratory rate: 72/minute) via an incised tracheal cannula. […] Oxatomide was administered two hours before the test, which is the optimal conditions according to Nippon Yakurigaku Zasshi (Japanese Journal of Pharmacology), 80, 261 (1982), and the other test drugs were orally administered at a rate of 0.2 ml/100 g body weight one hour before the test using a gastric tube. At the end of measurement, the trachea was blocked with a Kocher clamp and the measured values were expressed in percent taking the value at blockage as the maximum contraction (100%).

[3] = Acute toxicity in mice; assay type: in vivo; details: mouse, in vivo, suspension in 0.5% carboxymethylcellulose sodium
Procedure: as §3
(§4) Male IcR mice (SPF) (Nippon SLC, weight:24-32 g) of 4 weeks age were fasted for 5 hours before the test. The test compound (III-2) was administered in the form of a suspension in 0.5% carboxymethylcellulose sodium salt (0.2 ml per 10 g). Survived and dead animals were autopsied at day 14 and immediately after the death, respectively.

[4] = tested on: Male IcR mice; experiment: Acute toxicity in mice; assay type: in vivo; details: p.o. and i.p.
Procedure: as §3, §4

[5] = tested on: experimental asthma in guinea pigs; experiment: Inhibition of experimental asthma in guinea pigs; assay type: in vivo, Male Hartley guinea pigs; details: p.o., 1 mg/kg; significance vs. control: * p < 0.05, *** p < 0.001
Procedure: Male Hartley guinea pigs (N=10) were passively sensitized by intravenous injection of guinea pig antiovalbumin antiserum (titer for 3 hours PCA: 16000 times) diluted 5 times with physiological saline at a rate of 0.2 ml/animal. After 24 hours, the animal was fixed at dorsal position under urethane anesthetization and connected with a respirator (Harvard Model 683, respiratory volume: 4-6 ml/respiration; respiratory rate: 40/minute) via an incised tracheal cannula. Then 1 mg/kg Gallamine triethiodide was intravenously administered to stop the spontaneous respiration. […] Oxatomide was administered two hours before the challenge by antigen and the test drug (compound III-2) and Ketotifen were administered orally 1 hour before the challenge.

[6] = tested on: blood TXA2; experiment: Blood thromboxane (TX)A2 in sensitized guinea pigs; assay type: in vivo, Hartley guinea pigs
Procedure: as §1, §2

[7] = tested on: passive cutaneous anaphylaxis (PCA) reaction in rats; experiment: Inhibition of PCA reaction in rats; assay type: in vivo, Wistar rats; details: Rattus norvegicus, po; for inhibition in vivo at 10 mg/kg: read-out: Inhibition of PCA in rat
Procedure: as §3
Wistar rats were passively sensitized by intracutaneous injection of 0.05 ml antiserum diluted 75 times with physiological saline at two sheared sites of dorsal skin. After 48 hours, 0.5ml/animal of 1% Evans blue-physiological saline containing 2mg ovalbumin was administered into caudal vein to elicit the reaction. After 30 minutes, rats were sacrificed by decapitative bleeding and the dorsal skin was flayed. Dye stuff exuded at the reaction site was extracted according to the method described in Microbiol. Immunol., 22, 89 (1978). Briefly, two circular pieces of sensitized areas and one circular piece of unsensitized area (as the control) were punched at 1.8 cm diameter. The disks were placed in test tubes and treated overnight with 1 ml 1N-KOH at 37° C. Then 9ml 0.6N-H3 PO4 /acetone (5/13) was added and the mixture was thoroughly stirred and centrifuged (3000 rpm, 10 minutes). The supernatant was assayed for absorption at 620 nm. The amount of dye stuff was calculated from the standard curve previously prepared with known amounts of Evance blue. The conditions of sensitization and the amount of antigen were based on Nippon Yakurigaku Zasshi (Japanese Journal of Pharmacology),80, 261 (1982).
Test drugs and Oxatomide as a positive control were administered orally before 1 hour of elicitation through a gastric tube at 1 ml/200g body weight. In the test, groups of 6 to 7 animals and groups of 8 to 9 animals were used for test drugs and control, respectively.

SMILES: O=c1cc(CCN2CCC(c3c[nH]c4ccccc34)CC2)c2ccccc2[nH]1 [III-2, 4-[2-[4-(1H-indol-3-yl)-1-piperidinyl]ethyl]-2-(1H)-quinolinone]
- Inhibition of blood TXA2 increase ([1]; n = 11): 68.7%
- Blood TXA2 after reaction ([1]; n = 11, ***p < 0.001 vs. control): 0.45 ng/mL
- inhibition in vivo at 10 mg/kg [2]: 94.8%
- inhibition in vivo at 0.1 mg/kg ([2]; other dosage/kg: 0.1 mg): 27.5%
- inhibition in vivo at 0.3 mg/kg ([2]; other dosage/kg: 0.3 mg): 84.3%
- inhibition in vivo at 1 mg/kg ([2]; other dosage/kg: 1 mg): 73%
- inhibition in vivo at 3 mg/kg ([2]; other dosage/kg: 3 mg): 95.5%
- LD50 at 336 h ([3]; ip, read-out: LD50 for i.p.): > 1000 mg/kg
- LD50 at 336 h ([3]; po, read-out: LD50 for p.o.): > 3000 mg/kg
- Acute toxicity (in words) [4]: low toxity
- Inhibition % of experimental asthema in guinea pig [5]: 70.3%
- Blood TXA2 before reaction ([6]; 3 mg/kg orally 1 hour before elicitation, n = 5): 0.26 ± 0.05 ng/mL
- Inhibition of blood TXA2 increase ([6]; 3 mg/kg orally, n = 5): 94.4%
- Blood TXA2 after reaction ([6]; 3 mg/kg orally, n = 5, *p < 0.05 vs. control): 0.28 ng/mL
- inhibition in vivo at 10 mg/kg [7]: 67.4%
- inhibition in vivo at 30 mg/kg ([7]; other dosage/kg: 30 mg): 74.6%

SMILES: CN1CCC(=C2c3ccccc3CC(=O)c3sccc32)CC1 [Ketotifen]
- Inhibition % of experimental asthema in guinea pig [5]: 50.4%

SMILES: O=c1[nH]c2ccccc2n1CCCN1CCN(C(c2ccccc2)c2ccccc2)CC1 [Oxatomide, 1-[3-{4-(diphenylmethyl)-1-piperazinyl}propyl]-1,3-dihydro-2H-benzimidazol-2-one]
- Inhibition % of experimental asthema in guinea pig [5]: 43.7%

SMILES: O=c1cc(-c2ccccc2)c2ccccc2n1CCCN1CCC(c2c[nH]c3ccccc23)CC1 [VII-5, 1-[3-[4-(1H-indol-3-yl)-piperidinyl]propyl]-4-phenyl-2(1H)-quinolinone]
- inhibition in vivo at 10 mg/kg [2]: 50.1%
- inhibition in vivo at 10 mg/kg [7]: 6.7%

SMILES: O=c1cc(-c2ccc(Cl)cc2)c2ccccc2n1CCCN1CCC(c2c[nH]c3ccccc23)CC1 [VII-6, 4-(4-chlorophenyl)-l-[3-[4-(1H-indol-3-yl)-1-piperidinyl]propyl]-2(1H)-quinolinone]
- inhibition in vivo at 10 mg/kg [2]: 19.3%
- inhibition in vivo at 10 mg/kg [7]: 9.4%

SMILES: Cc1ccc(-c2cc(=O)n(CCCN3CCC(c4c[nH]c5ccccc45)CC3)c3ccccc23)cc1 [VII-7, 1-[3-[4-(1H-indol-3-yl)-piperidinyl]propyl]-4-(4-methylphenyl)-2(1H)-quinolinone]
- inhibition in vivo at 10 mg/kg [2]: 13.1%
- inhibition in vivo at 10 mg/kg [7]: 18.5%
